Source: patent US20040266623A1, “SYNERGISTIC QUINCLORAC HERBICIDAL COMPOSITIONS” (priority 2003, published 2004)

Legend:
Experiment in all cases: Greenhouse pot test, postemergent spray, visual control rating converted to percent control
Assay type in all cases: in vivo
[1] = tested on: crabgrass
Protocol: (§1) Pots of crabgrass, dandelion, white clover, and plantain grown in greenhouse soiless growth media were sprayed with a greenhouse pot sprayer at 43.46 gallons of spray solution/acre and allowed to stand in the greenhouse. Visual observation of the effects made by the herbicidal compositions on the plants in the test pots was recorded for control of crabgrass, dandelion, clover and plantain at 24 hours after treatment (HAT), 48 hours after treatment (HAT), 72 hours after treatment (HAT), 7 days after treatment (DAT), 14 days after treatment (DAT) and 21 days after treatment (DAT). A control rating scale of 1 to 9 was used to record the visual observation of the effect of the herbicidal composition on the plants over the time period of the tests. 1=no control, and 9=death of plant, with intervening numbers representing successive degrees of observed effectiveness of the herbicidal composition over time. The 1-9 control rating scale was converted to percent control in the test data charts that follow.
(§2) The test protocol of S. R. Colby as set out in his article entitled “Calculating Synergistic and Antagonistic Responses of Herbicide Compositions,” received for publication Apr. 11, 1966, Contribution No. 3796 and Scientific Article No. 1271 of the Maryland Agricultural Experiment Station, Department pf Agronomy, University of Maryland was followed to evaluate the synergistic properties of the combination of quinclorac plus a herbicidal protox inhibitor, and a combination of quinclorac, plus a herbicidal protox inhibitor plus a herbicidal auxinic agent as compared with the individual herbicides, using Colby's formulas E=X+Y−XY/100 for a two herbicide combination, where E=the expected percent of inhibition of growth by herbicides, X=the percent inhibition of growth by herbicide A at p lb/A, and Y=the percent inhibition of growth by herbicide B at q lb/A, for a given combination of two herbicides. Colby's formula E=X+Y+Z−(XY+XZ+YZ)/100+XYZ/10,000, was used for the three-way herbicide combination evaluation, where E, X and Y are the same as in the two herbicide formula and Z=the percent inhibition of growth by the third herbicide.

[2] = tested on: dandelion
Protocol: as §1, §2

[3] = tested on: plantain
Protocol: as §1, §2

[4] = tested on: white clover
Protocol: as §1, §2

[5] = Test 3, 7 DAT, scale 1=no control, 9=death of plant
[6] = Test 3, 14 DAT, scale 1=no control, 9=death of plant
[7] = Test 3, 21 DAT, scale 1=no control, 9=death of plant
[8] = Test 3, 24 HAT, scale 1=no control, 9=death of plant
[9] = Test 3, 72 HAT, scale 1=no control, 9=death of plant
[10] = Test 4, 24 HAT, scale 1=no control, 9=death of plant
[11] = Test 4, 72 HAT, scale 1=no control, 9=death of plant

O=C(O)c1c(Cl)ccc2cc(Cl)cnc12 [Quinclorac @ 0.375 lbs/A]
% Control Crabgrass ([1]; Test 3, 7 DAT): 22.2%
Control (1-9) Crabgrass [1, 5]: 2
% Control Crabgrass ([1]; Test 3, 14 DAT): 44.4%
Control (1-9) Crabgrass [1, 6]: 4
% Control Crabgrass ([1]; Test 3, 21 DAT): 66.7%
Control (1-9) Crabgrass [1, 7]: 6
% Control Crabgrass ([1]; Test 3, 24 HAT): 11.1%
Control (1-9) Crabgrass [1, 8]: 1
% Control Crabgrass ([1]; Test 3, 72 HAT): 11.1%
Control (1-9) Crabgrass [1, 9]: 1
% Control Crabgrass ([1]; Test 4, 24 HAT): 11.1%
Control (1-9) Crabgrass [1, 10]: 1
% Control Crabgrass ([1]; Test 4, 72 HAT): 11.1%
Control (1-9) Crabgrass [1, 11]: 1
% Control Dandelion ([2]; Test 3, 7 DAT): 22.2%
Control (1-9) Dandelion [2, 5]: 2
% Control Dandelion ([2]; Test 3, 14 DAT): 44.4%
Control (1-9) Dandelion [2, 6]: 4
% Control Dandelion ([2]; Test 3, 21 DAT): 55.6%
Control (1-9) Dandelion [2, 7]: 5
% Control Dandelion ([2]; Test 3, 24 HAT): 11.1%
Control (1-9) Dandelion [2, 8]: 1
% Control Dandelion ([2]; Test 3, 72 HAT): 22.2%
Control (1-9) Dandelion [2, 9]: 2
% Control Dandelion ([2]; Test 4, 24 HAT): 22.2%
Control (1-9) Dandelion [2, 10]: 2
% Control Dandelion ([2]; Test 4, 72 HAT): 22.2%
Control (1-9) Dandelion [2, 11]: 2
% Control Plantain ([3]; Test 3, 7 DAT): 33.3%
Control (1-9) Plantain [3, 5]: 3
% Control Plantain ([3]; Test 3, 14 DAT): 44.4%
Control (1-9) Plantain [3, 6]: 4
% Control Plantain ([3]; Test 3, 21 DAT): 44.4%
Control (1-9) Plantain [3, 7]: 4
% Control Plantain ([3]; Test 3, 24 HAT): 11.1%
Control (1-9) Plantain [3, 8]: 1
% Control Plantain ([3]; Test 3, 72 HAT): 22.2%
Control (1-9) Plantain [3, 9]: 2
% Control Plantain ([3]; Test 4, 24 HAT): 11.1%
Control (1-9) Plantain [3, 10]: 1
% Control Plantain ([3]; Test 4, 72 HAT): 22.2%
Control (1-9) Plantain [3, 11]: 2
% Control Clover ([4]; Test 3, 7 DAT): 44.4%
Control (1-9) Clover [4, 5]: 4
% Control Clover ([4]; Test 3, 14 DAT): 55.6%
Control (1-9) Clover [4, 6]: 5
% Control Clover ([4]; Test 3, 21 DAT): 88.9%
Control (1-9) Clover [4, 7]: 8
% Control Clover ([4]; Test 3, 24 HAT): 11.1%
Control (1-9) Clover [4, 8]: 1
% Control Clover ([4]; Test 3, 72 HAT): 22.2%
Control (1-9) Clover [4, 9]: 2
% Control Clover ([4]; Test 4, 24 HAT): 11.1%
Control (1-9) Clover [4, 10]: 1
% Control Clover ([4]; Test 4, 72 HAT): 22.2%
Control (1-9) Clover [4, 11]: 2

Cc1nn(-c2cc(CC(Cl)C(=O)O)c(Cl)cc2F)c(=O)n1C(F)F (stereo not shown) [Carfentrazone]
% Control Crabgrass ([1]; Test 1, 7 DAT, 0.01 lbs/A): 77.8%
Control (1-9) Crabgrass ([1]; Test 1, 7 DAT, 0.01 lbs/A): 7
% Control Crabgrass ([1]; Test 1, 7 DAT, 0.02 lbs/A): 77.8%
Control (1-9) Crabgrass ([1]; Test 1, 7 DAT, 0.02 lbs/A): 7
% Control Crabgrass ([1]; Test 1, 14 DAT, 0.01 lbs/A): 33.3%
Control (1-9) Crabgrass ([1]; Test 1, 14 DAT, 0.01 lbs/A): 3
% Control Crabgrass ([1]; Test 1, 14 DAT, 0.02 lbs/A): 33.3%
Control (1-9) Crabgrass ([1]; Test 1, 14 DAT, 0.02 lbs/A): 3
% Control Crabgrass ([1]; Test 1, 24 HAT, 0.01 lbs/A): 22.2%
Control (1-9) Crabgrass ([1]; Test 1, 24 HAT, 0.01 lbs/A): 2
% Control Crabgrass ([1]; Test 1, 24 HAT, 0.02 lbs/A): 33.3%
Control (1-9) Crabgrass ([1]; Test 1, 24 HAT, 0.02 lbs/A): 3
% Control Crabgrass ([1]; Test 1, 48 HAT, 0.01 lbs/A): 33.3%
Control (1-9) Crabgrass ([1]; Test 1, 48 HAT, 0.01 lbs/A): 3
% Control Crabgrass ([1]; Test 1, 48 HAT, 0.02 lbs/A): 55.6%
Control (1-9) Crabgrass ([1]; Test 1, 48 HAT, 0.02 lbs/A): 5
% Control Crabgrass ([1]; Test 4, 7 DAT, 0.01 lbs/A): 55.6%
Control (1-9) Crabgrass ([1]; Test 4, 7 DAT, 0.01 lbs/A): 5
% Control Crabgrass ([1]; Test 4, 7 DAT, 0.02 lbs/A): 55.6%
Control (1-9) Crabgrass ([1]; Test 4, 7 DAT, 0.02 lbs/A): 5
% Control Crabgrass ([1]; Test 4, 14 DAT, 0.01 lbs/A): 55.6%
Control (1-9) Crabgrass ([1]; Test 4, 14 DAT, 0.01 lbs/A): 5
% Control Crabgrass ([1]; Test 4, 14 DAT, 0.02 lbs/A): 55.6%
Control (1-9) Crabgrass ([1]; Test 4, 14 DAT, 0.02 lbs/A): 5
% Control Dandelion ([2]; Test 1, 7 DAT, 0.01 lbs/A): 88.9%
Control (1-9) Dandelion ([2]; Test 1, 7 DAT, 0.01 lbs/A): 8
% Control Dandelion ([2]; Test 1, 7 DAT, 0.02 lbs/A): 88.9%
Control (1-9) Dandelion ([2]; Test 1, 7 DAT, 0.02 lbs/A): 8
% Control Dandelion ([2]; Test 1, 14 DAT, 0.01 lbs/A): 88.9%
Control (1-9) Dandelion ([2]; Test 1, 14 DAT, 0.01 lbs/A): 8
% Control Dandelion ([2]; Test 1, 14 DAT, 0.02 lbs/A): 100.0%
Control (1-9) Dandelion ([2]; Test 1, 14 DAT, 0.02 lbs/A): 9
% Control Dandelion ([2]; Test 1, 24 HAT, 0.01 lbs/A): 44.4%
Control (1-9) Dandelion ([2]; Test 1, 24 HAT, 0.01 lbs/A): 4
% Control Dandelion ([2]; Test 1, 24 HAT, 0.02 lbs/A): 33.3%
Control (1-9) Dandelion ([2]; Test 1, 24 HAT, 0.02 lbs/A): 3
% Control Dandelion ([2]; Test 1, 48 HAT, 0.01 lbs/A): 55.6%
Control (1-9) Dandelion ([2]; Test 1, 48 HAT, 0.01 lbs/A): 5
% Control Dandelion ([2]; Test 1, 48 HAT, 0.02 lbs/A): 55.6%
Control (1-9) Dandelion ([2]; Test 1, 48 HAT, 0.02 lbs/A): 5
% Control Dandelion ([2]; Test 4, 7 DAT, 0.01 lbs/A): 55.6%
Control (1-9) Dandelion ([2]; Test 4, 7 DAT, 0.01 lbs/A): 5
% Control Dandelion ([2]; Test 4, 7 DAT, 0.02 lbs/A): 88.9%
Control (1-9) Dandelion ([2]; Test 4, 7 DAT, 0.02 lbs/A): 8
% Control Dandelion ([2]; Test 4, 14 DAT, 0.01 lbs/A): 55.6%
Control (1-9) Dandelion ([2]; Test 4, 14 DAT, 0.01 lbs/A): 5
% Control Dandelion ([2]; Test 4, 14 DAT, 0.02 lbs/A): 88.9%
Control (1-9) Dandelion ([2]; Test 4, 14 DAT, 0.02 lbs/A): 8
% Control Plantain ([3]; Test 4, 7 DAT, 0.01 lbs/A): 100.0%
Control (1-9) Plantain ([3]; Test 4, 7 DAT, 0.01 lbs/A): 9
% Control Plantain ([3]; Test 4, 7 DAT, 0.02 lbs/A): 88.9%
Control (1-9) Plantain ([3]; Test 4, 7 DAT, 0.02 lbs/A): 8
% Control Plantain ([3]; Test 4, 14 DAT, 0.01 lbs/A): 100.0%
Control (1-9) Plantain ([3]; Test 4, 14 DAT, 0.01 lbs/A): 9
% Control Plantain ([3]; Test 4, 14 DAT, 0.02 lbs/A): 88.9%
Control (1-9) Plantain ([3]; Test 4, 14 DAT, 0.02 lbs/A): 8
% Control Clover ([4]; Test 1, 7 DAT, 0.01 lbs/A): 66.7%
Control (1-9) Clover ([4]; Test 1, 7 DAT, 0.01 lbs/A): 6
% Control Clover ([4]; Test 1, 7 DAT, 0.02 lbs/A): 66.7%
Control (1-9) Clover ([4]; Test 1, 7 DAT, 0.02 lbs/A): 6
% Control Clover ([4]; Test 1, 14 DAT, 0.01 lbs/A): 77.8%
Control (1-9) Clover ([4]; Test 1, 14 DAT, 0.01 lbs/A): 7
% Control Clover ([4]; Test 1, 14 DAT, 0.02 lbs/A): 100.0%
Control (1-9) Clover ([4]; Test 1, 14 DAT, 0.02 lbs/A): 9
% Control Clover ([4]; Test 1, 24 HAT, 0.01 lbs/A): 33.3%
Control (1-9) Clover ([4]; Test 1, 24 HAT, 0.01 lbs/A): 3
% Control Clover ([4]; Test 1, 24 HAT, 0.02 lbs/A): 33.3%
Control (1-9) Clover ([4]; Test 1, 24 HAT, 0.02 lbs/A): 3
% Control Clover ([4]; Test 1, 48 HAT, 0.01 lbs/A): 55.6%
Control (1-9) Clover ([4]; Test 1, 48 HAT, 0.01 lbs/A): 5
% Control Clover ([4]; Test 1, 48 HAT, 0.02 lbs/A): 55.6%
Control (1-9) Clover ([4]; Test 1, 48 HAT, 0.02 lbs/A): 5
% Control Clover ([4]; Test 4, 7 DAT, 0.01 lbs/A): 66.7%
Control (1-9) Clover ([4]; Test 4, 7 DAT, 0.01 lbs/A): 6
% Control Clover ([4]; Test 4, 7 DAT, 0.02 lbs/A): 77.8%
Control (1-9) Clover ([4]; Test 4, 7 DAT, 0.02 lbs/A): 7
% Control Clover ([4]; Test 4, 14 DAT, 0.01 lbs/A): 66.7%
Control (1-9) Clover ([4]; Test 4, 14 DAT, 0.01 lbs/A): 6
% Control Clover ([4]; Test 4, 14 DAT, 0.02 lbs/A): 88.9%
Control (1-9) Clover ([4]; Test 4, 14 DAT, 0.02 lbs/A): 8
